From patent US8691725B2, “Synergistic combination of a glyphosate compound and TBZ” (Dow Global Technologies LLC, priority 2010, dated 2014)

Columns and labels:
[1] = tested on: Aspergillus niger mixed with Penicillium funiculosum; assay: Fungal efficacy on dry paint film (Modified ASTM 5590), pool An + Pf; type: cell-based; details: for % Inhibition: at the total conc for the same composition
Method: (§1) Each sample was tested in duplicate.
(§2) The SI is calculated based on F. C. Kull et.
(§3) SI value of <1 in the formula indicates a synergism of the blended biocides exists.
(§4) NE=no end point at the concentration tested that will meet the percent inhibition criteria set in each SI calculation.

[2] = tested on: Ap-Ch; assay: Fungal efficacy on dry paint film (Modified ASTM 5590), pool Ap-Ch; type: cell-based, Aureobasidium pullulans + Cladosporium herbarum
Method: as §1, §2, §3, §4

[3] = tested on: Aa-Tv; assay: Fungal efficacy on dry paint film (Modified ASTM 5590), pool Aa-Tv; type: cell-based, Alternaria alternata + Trichoderma viride
Method: as §1, §2, §3, §4

[4] = tested on: Gloeocapsa sp. and Oscillatoria sp.; assay: Algal efficacy on dry paint film (Modified ASTM 5589), pool Gs + Os (Os-Gl); type: cell-based
Method: as §1
(§5) In this synergy study, three pool of mixed algae were prepared as the test inoculum, Gloeocapsa sp. and Oscillatoria sp. a mix of cyanobacteria grown on BG-11 media; Chlorella sp., Chlorella kessleri, and Nostoc commune are unicellular chlorphytes that were mixed and grown on Bold media; Trentepohlia aurea, Tretepohlia odorata, and Calotrix parientina are filamentous algae that were mixed and grown on Bold media.
(§6) The plates were incubated at room temp (25° C.-26° C.) with cyclic exposure to light (OTT-Lite model # OTL4012P, 40 Watt, 26 KLumen) and dark phases, for a period of four weeks. The total area covered was evaluated at the end of each week according to percent area covered in 5% increments.
as §2, §3, §4

[5] = tested on: Trentepohlia aurea, Tretepohlia odorata, and Calotrix parientina; assay: Algal efficacy on dry paint film (Modified ASTM 5589), pool Cp + To + Ta (Cal-Tre); type: cell-based
Method: as §1, §5, §6, §2, §3, §4

[6] = tested on: Chlorella sp., Chlorella kessleri, and Nostoc commune; assay: Algal efficacy on dry paint film (Modified ASTM 5589), pool Cs + Ck + Nc (Ch-No); type: cell-based
Method: as §1, §5, §6, §2, §3, §4

[7] = cited from earlier work
[8] = at the total conc for the same composition

Row | Compound | % Inhibition [1] [%] | % Inhibition [2, 8] [%] | Total conc (minimum inhibitory concentration chosen for SI) ([2]; total actives in paint) [pppm] | % Inhibition [3, 8] [%] | Total conc (minimum inhibitory concentration chosen for SI) ([3]; total actives in paint) [pppm] | % Inhibition [4, 8] [%] | Total conc (minimum inhibitory concentration chosen for SI) ([4]; total actives in paint) [pppm] | Total conc (minimum inhibitory concentration chosen for SI) ([1]; total actives in paint) [pppm] | % Inhibition [5, 8] [%] | Total conc (minimum inhibitory concentration chosen for SI) ([5]; total actives in paint) [pppm] | % Inhibition [6, 8] [%] | Total conc (minimum inhibitory concentration chosen for SI) ([6]; total actives in paint) [pppm] | solubility in water [7]
1 | zinc glyphosate | 70 | – | – | – | – | – | – | – | – | – | – | – | –
2 | c1ccc2[nH]c(-c3cscn3)nc2c1 [TBZ, thiabendazole] | 70 | 100 | 1650 | 0 | 3300 | 80 | 3300 | 2475 | 80 | 1650 | 80 | 2475 | –
3 | O=C(O)CNCP(=O)(O)O [glyphosate, N-(phosphonomethyl)glycine] | – | – | – | – | – | – | – | – | – | – | – | – | relatively high solubility in water
